These results are taken from patent publication US20220280594A1, “APPLICATION OF POLYPEPTIDE OR DERIVATIVE THEREOF” (CHENGDU HUITAI BIOMEDICINE CO., LTD., priority 2019, published 2022).

Assay type in all cases: cell-based
Test [1] relates to human thyroid cancer cells (FRO). The test can be described thus: scratch assay, migration of FRO cells. To be noted: 10 μM, 48 hours, control group 60.34 ± 8.32. In a few lines:
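FRO monolayers were scratched, washed, and cultured 48 h in 2% FBS medium with polypeptide derivatives at 10 μM or PBS control, three wells per group. Migration rate (%) = (original − current scratch width)/original width × 100, measured from images.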

In test [2] the test system is human colon cancer cells (HCT-116). In words: scratch assay, migration of HCT-116 cells. To be noted: HCT-116, 10 μM, 48 hours; control group 47.78 ± 6.07. In a few lines: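 Confluent HCT-116 monolayers were scratched, washed and cultured 48 h in 2% FBS medium with peptide at 10 μM versus PBS control, triplicate wells. Migration rate (%) = (original minus current scratch width)/original width × 100, from at least 3 images per well.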

The test system of test [3] is human melanoma cells (A375). The test can be described thus: scratch assay, migration of A375 cells. To be noted: A375, 10 μM, 48 hours; control group 44.03 ± 6.21. In a few lines:
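Monolayers scratched, washed with PBS and cultured 48 hours in 2% FBS medium with polypeptides N1-N54 at 10 μM or PBS control, three wells per group. Migration rate (%) = (original − current scratch width)/original width×100, from imaged scratch widths.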

For test [4], the system named is human pancreatic cancer cells (PANC-1). The test can be described thus: transwell migration assay, PANC-1 cells. The settings on record: PANC-1 transwell migration, 10 μM, 24 hours; control group 360 ± 60. In a few lines:
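Serum-free PANC-1 cells placed in the upper transwell chamber with complete medium below; after 4-5 h, peptide added to the upper chamber at a final 10 μM. Migration ran 24 h at 37 °C; cells on the membrane underside were methanol-fixed, crystal violet-stained and counted by microscopy.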

Test [5] has as its system human lung squamous carcinoma cells (NCI-H226). In words: scratch assay, migration of NCI-H226 cells. To be noted: NCI-H226, 10 μM, 48 hours; control group 65.31 ± 3.19. An outline of the steps: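 A straight scratch was made in confluent NCI-H226 monolayers (1-2×10^5 cells/well). Cells were then kept 48 h in 2% FBS medium with 10 μM polypeptide or PBS control, triplicate wells. Migration rate (%) = (original − current scratch width)/original width ×100, from imaged scratch widths.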

The test system of test [6] is human oral epidermoid carcinoma KB cells. The test can be described thus: scratch assay, migration of KB cells. The settings on record: 10 μM, 48 hours, control group 54.03 ± 4.21. An outline of the steps:
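Monolayers of KB cells were scratched, washed with PBS, then cultured 48 hours in 2% FBS medium containing test polypeptide (10 μM) or PBS control, in triplicate wells. From images, migration rate (%) = (original − current scratch width)/original width × 100.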

The subject of test [7] is human pharyngeal squamous-cell carcinoma cells (Fadu). In words: scratch assay, migration of Fadu cells. To be noted: 10 μM, 48 hours, control group 28.76 ± 4.08. An outline of the steps: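 Confluent Fadu monolayers scratched, then cultured 48 h with 10 μM polypeptide in medium with 2% FBS; PBS control, triplicate wells. Migration rate (%) = (original − current scratch width)/original width × 100, from ≥3 images per well.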

The test system of test [8] is human liver adenocarcinoma cells (SK-HEP-1). The test can be described thus: transwell invasion assay, SK-HEP-1 cells. The settings on record: SK-HEP-1 transwell invasion, 10 μM, 24 hours; control group 767 ± 91. An outline of the steps: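 Serum-free SK-HEP-1 cells were seeded in matrigel-coated upper chambers over complete medium. After 4-5 h, peptide was added to the upper chamber at 10 μM final. Following 24 h at 37° C., invaded cells were fixed, crystal violet-stained, imaged and counted.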

Ends that are not written are not given here. PEG = not defined here

“N35: SEQ ID NO: 1 with A15R, addition of one amino acid and PEG modification at the carboxyl terminal (YRVRFLAKENVTQDREDNC-{PEG}; reading uncertain)”: the “Migration rate (%) (mean ± SD, P)” value is recorded as 8.04 ± 2.90,*** % in test [1]; 9.08 ± 2.64,*** % in test [2]; 19.51 ± 2.28,** % in test [3]; 42.47 ± 5.12,** % in test [5]; 6.07 ± 2.30,*** % in test [6]; 8.71 ± 1.79,*** % in test [7]. Also, the “Number of cells (mean ± SD, P), migrated cells” value in test [4] is 151 ± 10,***. Besides, the “Number of cells (mean ± SD, P), invaded cells” value in test [8] was 338 ± 43,***.
With “N37: SEQ ID NO: 1 with addition of two amino acids to the carboxyl terminal and PEG modification at the amino terminal ({PEG}-YRVRFLAKENVTQDAEDNCT; reading uncertain)”, the “Migration rate (%) (mean ± SD, P)” value is reported as 36.47 ± 5.69,* % in test [1]; 4.99 ± 1.68,*** % in test [2]; 14.48 ± 2.51,*** % in test [3]; 11.33 ± 9.49,*** % in test [5]; 24.48 ± 2.51,* % in test [6]; 15.89 ± 3.88,* % in test [7]. Moreover, the “Number of cells (mean ± SD, P), migrated cells” value in test [4] is on record as 113 ± 11,***. Moreover, in test [8], the “Number of cells (mean ± SD, P), invaded cells” value was 233 ± 13,****.
Regarding “N38: SEQ ID NO: 1 with one amino acid added at each terminal and PEG modification at the carboxyl terminal (FYRVRFLAKENVTQDAEDNC-{PEG}; reading uncertain)”, the “Migration rate (%) (mean ± SD, P)” value is recorded as 19.23 ± 7.52,** % in test [1]; 5.97 ± 2.44,*** % in test [2]; 15.57 ± 3.65,*** % in test [3]; 47.66 ± 6.39,* % in test [5]; 15.57 ± 3.65,* % in test [6]; 18.18 ± 3.61,* % in test [7]. Also, in test [4], the “Number of cells (mean ± SD, P), migrated cells” value is given as 116 ± 27,***. In test [8], the “Number of cells (mean ± SD, P), invaded cells” value is on record as 249 ± 42,****.
For the substance “N39: SEQ ID NO: 1 with addition of two amino acids and PEG modification at the carboxyl terminal (YRVRFLAKENVTQDAEDNTC-{PEG}; reading uncertain)”, the “Migration rate (%) (mean ± SD, P)” value is 36.51 ± 4.36,* % in test [1]; 4.29 ± 2.88,*** % in test [2]; 9.21 ± 3.20,*** % in test [3]; 21.82 ± 5.54,*** % in test [5]; 9.21 ± 4.20,*** % in test [6]; 18.48 ± 5.74,* % in test [7]. Also, the “Number of cells (mean ± SD, P), migrated cells” value in test [4] was 262 ± 13,*. Also, the “Number of cells (mean ± SD, P), invaded cells” value in test [8] was 88 ± 25,****.
For “N40: SEQ ID NO: 1 with deletion of positions 1-5 and 15-18, PEG at the amino terminal, two amino acids added at the carboxyl terminal ({PEG}-LAKENVTQDRC; reading uncertain)”, the “Migration rate (%) (mean ± SD, P)” value in test [1] was 39.96 ± 4.95,* %; in test [2], 2.19 ± 1.45,*** %; in test [3] it was 6.47 ± 1.39,*** %; in test [5] it was 17.00 ± 6.49,*** %; in test [6], 6.47 ± 4.39,*** %; in test [7], 10.25 ± 2.76,** %. Further, the “Number of cells (mean ± SD, P), migrated cells” value in test [4] is recorded as 264 ± 12,*. Also, the “Number of cells (mean ± SD, P), invaded cells” value in test [8] is reported as 123 ± 26,****.
“N41: SEQ ID NO: 1 with addition of two amino acids at the amino terminal, deletion of position 18, PEG at the carboxyl terminal (FRYRVRFLAKENVTQDAED-{PEG}; reading uncertain)”: the “Migration rate (%) (mean ± SD, P)” value in test [1] was 40.10 ± 2.73,* %; in test [2], 5.78 ± 2.76,*** %; in test [3], 10.01 ± 2.07,*** %; in test [5], 15.30 ± 8.69,*** %; in test [6], 20.01 ± 2.07,** %; in test [7], 12.00 ± 4.73,** %. In test [4], the “Number of cells (mean ± SD, P), migrated cells” value is on record as 248 ± 22,*. For the same substance, in test [8], the “Number of cells (mean ± SD, P), invaded cells” value is reported as 58 ± 12,****.
As to “N42: SEQ ID NO: 1 with deletion of positions 1-5 and 15-18, PEG at the amino terminal, one amino acid added at the carboxyl terminal ({PEG}-LAKENVTQDR; reading uncertain)”, the “Migration rate (%) (mean ± SD, P)” value in test [1] is reported as 25.71 ± 2.79,** %; in test [2] it was 6.75 ± 2.33,*** %; in test [3] it was 8.92 ± 2.25,*** %; in test [5] it was 17.46 ± 6.33,*** %; in test [6] it was 8.92 ± 2.65,*** %; in test [7], 18.63 ± 2.79,* %. Also, in test [4], the “Number of cells (mean ± SD, P), migrated cells” value is reported as 236 ± 14,**. Further, in test [8], the “Number of cells (mean ± SD, P), invaded cells” value is reported as 149 ± 29,****.
For “N43: SEQ ID NO: 1 with addition of one amino acid at the amino terminal, deletion of position 18, PEG at the carboxyl terminal (RYRVRFLAKENVTQDAED-{PEG}; reading uncertain)”, the “Migration rate (%) (mean ± SD, P)” value in test [1] is listed as 19.78 ± 4.60,** %; in test [2] it was 4.56 ± 1.52,*** %; in test [3] it was 11.22 ± 1.74,*** %; in test [5], 16.38 ± 7.71,*** %; in test [6], 11.22 ± 1.74,*** %; in test [7], 10.04 ± 2.50,** %. Also, in test [4], the “Number of cells (mean ± SD, P), migrated cells” value was 157 ± 15,***. Moreover, the “Number of cells (mean ± SD, P), invaded cells” value in test [8] is reported as 107 ± 16,****.
With “N45: SEQ ID NO: 1 with V11R, deletion of positions 1-5 and 15-18, PEG modification at the carboxyl terminal (LAKENRTQD-{PEG}; reading uncertain)”, the “Migration rate (%) (mean ± SD, P)” value in test [1] is listed as 24.22 ± 6.27,** %; in test [2] it was 28.34 ± 2.87,** %; in test [3], 18.79 ± 2.28,** %; in test [5], 23.76 ± 5.38,*** %; in test [6], 8.79 ± 2.28,*** %; in test [7], 9.34 ± 2.86,*** %. In addition, in test [4], the “Number of cells (mean ± SD, P), migrated cells” value is listed as 135 ± 10,***. In test [8], the “Number of cells (mean ± SD, P), invaded cells” value was 155 ± 10,****.
